Ki and IC90 data for seven molecules are collected here from US20080293727A1, “Novel sulfonamide inhibitors of aspartyl protease” (priority 1992, published 2008).

Where two headings read alike, the source gives them in different places.

One assay addresses HIV-1 protease (Human immunodeficiency virus type 1 group M subtype B, UniProt P04585). Briefly: Inhibition constants against HIV-1 protease (method of Pennington et al.). The format is biochemical. An excerpt:
We measured the inhibition constants of the compounds listed in Table VII against HIV-1 protease using the above-cited method of Pennington et al.

Assay [1] deals with HIVIIIb in CCRM-CEM cells. The assay can be described thus: Anti-viral potency in CCRM-CEM cells acutely infected with HIVIIIb, extracellular p24 antigen readout (method of Meek et al.). The format is cell-based, HIV-1. The procedure:
Compounds of formula I were tested for their antiviral potency in several virological assays.
The effect of the compounds on inhibiting the replication of the virus was measured by determining the HIV extracellular p24 antigen concentration using a commercial enzyme immunoassay (obtained from Coulter Corporation, Hialeah, Fla.).
In Table VIII, the following classifications have been employed: • A: inhibits HIV replication at concentration of 100 nM or less. • B: inhibits HIV replication at concentration of between 101 and 1,000 nM. • C: inhibits HIV replication at a concentration of between 1,001 and 10,000 nM. • D: inhibits HIV replication at a concentration of between 10,001 and 40,000 nM. • ND: not tested.

Where [2] appears, read: HIV-1 protease, read-out: Ki value.
[3] abbreviates: Human immunodeficiency virus 1, read-out: IC90 Range.
Setting [4] is: CCRM-CEM cells, HIV replication, read-out: IC90 Range.

In the case of `CC(C)CN(C[C@@H](O)[C@H](Cc1ccccc1)NC(=O)OC(C)(C)C)S(=O)(=O)c1ccccc1F` [Compound 47], on HIV-1 protease (setting [2]), the Ki came out at 4 nM. Besides, the IC90 in assay [1] (setting [3]) fell in the range of 1000 to 10000 nM.

`CCC(C)C(NC(=O)OCc1ccccc1)C(=O)NC(Cc1ccccc1)C(O)CN(CC(C)C)S(=O)(=O)c1ccc(F)c(NC(C)=O)c1` [Compound 187, Benzyloxycarbonyl-(L)-isoleucine-N-(5-((3-amino-(2 syn,3S)-2-hydroxy-4-phenyl-butyl)-isobutyl-sulfamoyl)-2-fluoro-phenyl)-acetamide]: at HIV-1 protease (setting [2]), the Ki is 0.3 nM. In addition, the IC90 in assay [1] (setting [3]) is 101 to 1000 nM.

Regarding `CC(C)CN(C[C@@H](O)[C@H](Cc1ccccc1)NC(=O)O[C@H]1CCOC1)S(=O)(=O)c1ccc(O)c(N)c1` [Compound 1004], the Ki at HIV-1 protease (setting [2]) is 0.2 nM. Moreover, the IC90 in assay [1] (setting [3]) is under 100 nM.

For `CCC(C)C(NC(=O)c1cnc2ccccc2n1)C(=O)NC(Cc1ccccc1)C(O)CN(CC(C)C)S(=O)(=O)c1ccc(F)c(NC(C)=O)c1` (centres unmarked) [Compound 188], the Ki at HIV-1 protease (setting [2]) came out at 11.5 nM. In addition, the IC90 in assay [1] (setting [3]) was 1000 to 10000 nM.

Take `CC(=O)N1CCc2ccc(S(=O)(=O)N(CC3CCCC3)CC(O)[C@H](Cc3ccccc3)NC(=O)O[C@H]3CCOC3)cc21` (stereo partly drawn) [Compound 157, 1-Acetyl-2,3-dihydro-1H-indole-6-sulfonic acid cyclopentylmethyl-((2 syn, 3S)-2-hydroxy-4-phenyl-3-((S)-tetrahydrofuran-3-yloxycarbonylamino)-butyl)-amide]: the Ki at HIV-1 protease (setting [2]) was 0.7 nM. Moreover, the concentration for an effect of 90% (IC90) in assay [1] (setting [4]) lay within 101 to 1000 nM.

On HIV-1 protease, `Nc1ccc(S(=O)(=O)N(CC2CCCC2)C[C@@H](O)[C@H](Cc2ccccc2)NC(=O)O[C@H]2CCOC2)cc1N` [Compound 1015] showed a Ki of 19 nM. The concentration for an effect of 90% (IC90) in assay [1] (Human immunodeficiency virus 1, CCRM-CEM cells, HIV replication, read-out: IC90 Range) is under 100 nM.

`CC(C)CN(CC(O)[C@H](Cc1ccccc1)NC(=O)O[C@@H]1CCOC1)S(=O)(=O)c1ccc(F)cc1` (stereo partly drawn) [Compound 52, 4-Fluoro-N-((2 syn,3S)-2-hydroxy-4-phenyl-3-((R)-tetrahydrofuran-3-yloxycarbonylamino)-butyl)-N-isobutyl-benzenesulfonamide and 4-Fluoro-N-((2 syn,3S)-2-hydroxy-4-phenyl-3-((R)-tetrahydrofuran-3-yloxycarbonylamino)-butyl)-N-isobutyl-benzenesulfonamide]: the Ki on HIV-1 protease (setting [2]) turned out to be 0.4 nM. Moreover, the IC90 in assay [1] (setting [4]) was 101 to 1000 nM.
